Test results reported in US20170216252A1, “ANTI-BACTERIAL PYRUVATE KINASE MODULATOR COMPOUNDS, COMPOSITIONS, USES AND METHODS” (SIMON FRASER UNIVERSITY, priority 2014, published 2017).
In brackets after ≈: the same amount, converted by molar mass.

Columns and labels:
[1] = test system: A. baumannii (ATCC 19606); experiment: Broth microdilution MIC; type: cell-based; settings: Acinetobacter baumannii, ATCC19606; A. baumannii (ATCC 19606); read-out: MIC (μg/mL) B
Procedure: (§1) The antimicrobial activities of PK inhibitor candidates were determined using the 96-well microtiter standard 2-fold serial broth microdilution method as described by CLSI (formerly NCCLS) with the various gram-positive and gram-negative bacteria species mentioned above. Bacteria from a single colony were grown, overnight in either BHI Broth (VRE), mueller hinton broth (S. aureus 29213; MRSA USA400) or L-broth (E. coli, P. aeruginosa, S. typhimuriu, K. Pneumonia and A. baumannii). […] Culture plates were incubated for 18-24 h at 37° C., and optical density at 600 nm (OD600) was measured using a Benchmark Plus™ microplate spectrophotometer (Bio-Rad™). The absorbance control values for the series containing CAMHB and inhibitor were subtracted as background from the corresponding infected wells. The MIC was defined as the lowest concentration of test compound leading to complete inhibition of cell growth in relationship to compound-free control wells as determined by optical density. […] All assays were run in triplicate (Tables 1-6) or duplicate. Experiments were replicated at least twice to verify reproducibility using the above conditions.
(§2) The antimicrobial activity of selected compounds against the gram negative bacteria Klebsiella pneumoniae, Acinetobacter baumannii, E. coli, Pseudomonas aeruginosa and Salmonella typhimurium, as well as additional gram positive bacteria, including drug-resistant strains, was tested according to the procedures provided under “General Methodologies” above.

[2] = test system: K. pneumoniae (C238); experiment: Broth microdilution MIC; type: cell-based; settings: Klebsiella pneumoniae; K. pneumoniae (C238); read-out: MIC (μg/mL) A
Procedure: as §1, §2

[3] = test system: MRSA MW2 (USA400); experiment: Broth microdilution MIC; type: cell-based; settings: Staphylococcus aureus; MRSA MW2 (USA400); read-out: MIC (μg/mL) G
Procedure: as §1, §2

[4] = test system: P. aeruginosa (PA01); experiment: Broth microdilution MIC; type: cell-based; settings: Pseudomonas aeruginosa
Procedure: as §1, §2

[5] = test system: S. pyogenes (ATCC700294); experiment: Broth microdilution MIC; type: cell-based; settings: Streptococcus pyogenes
Procedure: as §1, §2

[6] = test system: S. typhimurium (SL 1344); experiment: Broth microdilution MIC; type: cell-based; settings: Salmonella enterica
Procedure: as §1, §2

[7] = test system: E. coli (DAS 1-IMP); experiment: microbe, parasite or virus in culture; type: cell-based, Escherichia coli; settings: Escherichia coli, read-out: MIC (μg/mL) C, E. coli (DAS 1-IMP)
Procedure: as §1, §2

[8] = In vivo tolerability (MTD) study
Procedure: (§3) The MTD and pharmacokinetic profiles of compounds 123 and 178 administered IV or PO were determined in female CD-1 mice (6-8 weeks of age). Compounds were dissolved in 3% DMSO/6% Solutol® HS 15/10 mM PB (pH7.4) for IV administration and in 3% DMSO/6% Solutol® HS 15/water for oral administration.
For tolerability studies, one animal from each group was administered the lowest dose first and then observed for 60 min. […] On the following day, the next higher dose was administered using the same procedure outlined above. Animals were euthanized 24 hours after the last injection, a cardiac puncture blood sample was collected and processed for plasma. Thigh muscle was collected and a necropsy performed.

[9] = Pharmacokinetic study; type: in vivo, female CD-1 mice; settings: female, CD-1, mouse, plasma
Procedure: as §3
For the pharmacokinetic study, animals were injected with their respective compound at the dose indicated in 11. At their respective time point, animals were deeply anesthetized with isoflurane and then asphyxiated with CO2. Cardiac puncture blood was collected immediately following death, and the blood processed to generate plasma.

## O=C(c1c(-c2cc3cc(Cl)ccc3[nH]2)[nH]c2cc(Br)ccc12)C(F)(F)F [Compound 178, 1-(6-bromo-5′-chloro-1H,1′H-[2,2′-biindol]-3-yl)-2,2,2-trifluoroethan-1-one]
[1]
  MIC: > 64 µg/mL
[2]
  MIC: 1 µg/mL (≈ 2.26 µM)
[3]
  MIC: 0.5 µg/mL (≈ 1.13 µM)
[4]
  MIC: > 64 µg/mL
[5]
  MIC: 1 µg/mL (≈ 2.26 µM)
[6]
  MIC: > 64 µg/mL
[7]
  MIC: > 64 µg/mL
[8]; IV doses of 30 mg/kg
  Tolerability: well tolerated
[8]; PO doses of 10 mg/kg
  Tolerability: well tolerated
[9]; 10 mg/kg, PO administration, read-out: bioavailability (% F)
  bioavailability: 21%
[9]; IV administration at 3 mg/kg
  Cmax: 19000 ng/mL
  half-life: 2.27 h
